Consider 22 molecules from patent US20080021071A1, “3-{4-(Pyridin-3-Yl) Phenyl}-5-(1H-1,2,3-Triazol-1-Ylmethyl)-1,3-Oxazolidin-2-Ones as Antibacterial Agents” (ASTRAZENECA AB, priority 2004, published 2008).

The target in one data set is T1, MAO-A (Homo sapiens, UniProt P21397).
T1 construct: made in house; host or cells: yeast
T1 sequence (P21397 1-527): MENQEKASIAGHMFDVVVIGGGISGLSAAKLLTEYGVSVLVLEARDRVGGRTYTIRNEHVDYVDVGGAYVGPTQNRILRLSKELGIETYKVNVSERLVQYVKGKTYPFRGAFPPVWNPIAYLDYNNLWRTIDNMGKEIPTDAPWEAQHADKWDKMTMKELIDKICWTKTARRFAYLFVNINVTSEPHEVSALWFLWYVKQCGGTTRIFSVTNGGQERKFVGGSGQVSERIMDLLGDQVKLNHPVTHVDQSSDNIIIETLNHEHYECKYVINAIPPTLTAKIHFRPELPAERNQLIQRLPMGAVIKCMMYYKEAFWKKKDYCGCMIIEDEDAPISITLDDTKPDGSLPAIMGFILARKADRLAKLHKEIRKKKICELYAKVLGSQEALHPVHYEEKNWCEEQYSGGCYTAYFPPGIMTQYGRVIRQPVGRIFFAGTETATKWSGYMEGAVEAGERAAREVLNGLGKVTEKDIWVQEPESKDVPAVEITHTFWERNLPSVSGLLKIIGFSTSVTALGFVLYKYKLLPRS
Description: MAO-A inhibition, standard in-vitro assay, human liver enzyme expressed in yeast. It counts as biochemical. As to the method: The activity of the compounds of the invention against MAO-A was tested using a standard in-vitro assay based on human liver enzyme expressed in yeast as described in Biochem. Biophys. Res. Commun. 1991, 181, 1084-1088. Compounds of the invention typically give Ki values of >5 μM when measured in such an assay as above.

The nature of data set [1]: equilibrium solubility in pH 7.4 phosphate buffer. It counts as physicochemical. As to conditions: aqueous buffer, thermodynamic from solid. The text has this: It will be understood that parameters such as solubility may be measured by any suitable technique known in the art.
Data set [2] has as its system Linezolid Resistant Streptococcus pneumoniae. Briefly: MIC, Linezolid Resistant Streptococcus pneumoniae. Type of data set: cell-based. How it is done:
(§1) The following results were obtained on a standard in-vitro test system. The activity is described in terms of the minimum inhibitory concentration (MIC) determined by the agar-dilution technique with an inoculum size of 10^4 CFU/spot. Typically, compounds are active in the range 0.01 to 256 μg/ml.
(§2) Streptococci and enterococci were tested on agar supplemented with 5% defibrinated horse blood, an inoculum of 10^4 CFU/spot and an incubation temperature of 37° C. in an atmosphere of 5% carbon dioxide for 48 hours—blood is required for the growth of some of the test organisms. Fastidious Gram negative organisms were tested in Mueller-Hinton broth, supplemented with hemin and NAD, grown aerobically for 24 hours at 37° C., and with an innoculum of 5×10^4 CFU/well.

Data set [3] has as its system Staphylococcus aureus MSQS. Briefly: MIC, agar-dilution, Staphylococcus aureus MSQS. Type of data set: cell-based. Conditions: Staphylococcus aureus MSQS (methicillin sensitive and quinolone sensitive). As to the method:
as §1
(§3) Staphylococci were tested on agar, using an inoculum of 10^4 CFU/spot and an incubation temperature of 37° C. for 24 hours—standard test conditions for the expression of methicillin resistance.

The test system of data set [4] is Staphylococcus aureus MRQR. Briefly: MIC, agar-dilution, Staphylococcus aureus MRQR. It counts as cell-based. As to conditions: Staphylococcus aureus MRQR (methicillin resistant and quinolone resistant). As to the method: as §1, §3
The next data set concerns Haemophilus influenzae. Briefly: MIC, Haemophilus influenzae. Type of data set: cell-based. How it is done: as §1, §2
In the next data set the test system is Streptococcus pneumoniae. Briefly: MIC, Streptococcus pneumoniae. It counts as cell-based. How it is done: as §1, §2

≈ marks a conversion by molar mass, not a printed value. Where a name gives a salt, the structure may show the parent alone.

Broadly, the melting point is the temperature of the solid-liquid transition. Take `CN(C)CC(O)c1ccc(-c2ccc(N3C[C@H](Cn4ccnn4)OC3=O)cc2F)cn1` (stereo partly drawn) (as salt: hydrochloride) [Example 2, (5R)-3-(4-{6-[2-(Dimethylamino)-1-hydroxyethyl]pyridin-3-yl}-3-fluorophenyl)-5-(1H-1,2,3-triazol-1-ylmethyl)-1,3-oxazolidin-2-one]: the melting point was > 115 °C (dec.).
As a reminder, the Ki is the equilibrium dissociation constant of an inhibitor or competing ligand from its target. In turn, `CN(C)Cc1ccc(-c2ccc(N3C[C@H](Cn4ccnn4)OC3=O)cc2F)cn1` [Example 8] gave a melting point of 160 °C. The same molecule came in with a Ki on MAO-A of 15 µM.
`C[C@@H](O)c1ccc(-c2ccc(N3C[C@H](Cn4ccnn4)OC3=O)cc2F)cn1` [Example 10, (5R)-3-(3-Fluoro-4-{6-[(1R)-1-hydroxyethyl]pyridin-3-yl}phenyl)-5-(1H-1,2,3-triazol-1-ylmethyl)-1,3-oxazolidin-2-one]: the melting point is 190 °C.
A word on the solubility (thermodynamic): it is the concentration in solution at equilibrium with solid. With `O=C1O[C@@H](Cn2ccnn2)CN1c1ccc(-c2ccc(C(O)CO)nc2)c(F)c1` (stereo partly drawn) [Example 4, (5R)-3-{4-[6-(1,2-Dihydroxyethyl)pyridin-3-yl]-3-fluorophenyl}-5-(1H-1,2,3-triazol-1-ylmethyl)-1,3-oxazolidin-2-one], the melting point worked out at 175 °C. The same molecule displayed a solubility (thermodynamic) in data set [1] of 210 µM (≈ 83.9 µg/mL). The affinity at MAO-A corresponds to a Ki of 48 µM.
`N#Cc1ccc(-c2ccc(N3C[C@H](Cn4ccnn4)OC3=O)cc2F)cn1` [Ref Example 1, 5-{2-Fluoro-4-[(5R)-2-oxo-5-(1H-1,2,3-triazol-1-ylmethyl)-1,3-oxazolidin-3-yl]phenyl}pyridine-2-carbonitrile] showed an inhibition constant Ki on MAO-A of less than 0.3 µM.
`CN(CCO)Cc1ccc(-c2ccc(N3C[C@H](Cn4ccnn4)OC3=O)cc2F)cn1` [Example 7, (5R)-3-[3-Fluoro-4-(6-{[(2-hydroxyethyl)(methyl)amino]methyl}pyridin-3-yl)phenyl]-5-(1H-1,2,3-triazol-1-ylmethyl)-1,3-oxazolidin-2-one] gave a melting point of 137 °C.
Still for that read-out and setting: the value for `CC(C)NCC(O)c1ccc(-c2ccc(N3C[C@H](Cn4ccnn4)OC3=O)cc2F)cn1` (stereo partly drawn) (as salt: hydrochloride) [Example 3, (5R)-3-(3-Fluoro-4-{6-[1-hydroxy-2-(isopropylamino)ethyl]pyridin-3-yl}phenyl)-5-(1H-1,2,3-triazol-1-ylmethyl)-1,3-oxazolidin-2-one] was > 170 °C (dec.).
Take `Cc1ccc(-c2ccc(N3C[C@H](Cn4ccnn4)OC3=O)cc2F)cn1` [Ref Example 2, (5R)-3-[3-Fluoro-4-(6-methylpyridin-3-yl)phenyl]-5-(1H-1,2,3-triazol-1-ylmethyl)-1,3-oxazolidin-2-one]: on MAO-A, the inhibition constant (Ki) stood at 0.6 µM.
In turn, `O=C1O[C@@H](Cn2ccnn2)CN1c1ccc(-c2ccc(CO)nc2)c(F)c1` [Ref Example 3, (5R)-3-{3-Fluoro-4-[6-(hydroxymethyl)pyridin-3-yl]phenyl}-5-(1H-1,2,3-triazol-1-ylmethyl)-1,3-oxazolidin-2-one] had a melting point of 177 °C. The molecule further showed a Ki on MAO-A of 4.8 µM.
For the molecule `CN(Cc1ccc(-c2ccc(N3C[C@H](Cn4ccnn4)OC3=O)cc2F)cn1)CC(O)CO` (stereo partly drawn) [Example 6, (5R)-3-[4-(6-{[(2,3-Dihydroxypropyl)(methyl)amino]methyl}pyridin-3-yl)-3-fluorophenyl]-5-(1-1,2,3-triazol-1-ylmethyl)-1,3-oxazolidin-2-one], the melting point is 123 °C.
`O=C1O[C@@H](Cn2ccnn2)CN1c1ccc(-c2cccnc2)c(F)c1` [Ref Example 4, (5R)-3-(3-Fluoro-4-pyridin-3-ylphenyl)-5-(1H-1,2,3-triazol-1-ylmethyl)-1,3-oxazolidin-2-one] showed a Ki on MAO-A of less than 0.3 µM.
Regarding `Cn1nnc(-c2ccc(-c3ccc(N4C[C@H](Cn5ccnn5)OC4=O)cc3F)cn2)n1` [Reference Example 6, (5R)-3-(3-Fluoro-4-(6-(2-methyl-2H-tetrazol-5-yl)pyrid-3-yl)phenyl)-5-(1H-1,2,3-triazol-1-ylmethyl)-1,3-oxazolidin-2-one, reference compound], the thermodynamic solubility in data set [1] was less than 7.1 µM.
`O=C(OCc1ccc(-c2ccc(N3C[C@H](Cn4ccnn4)OC3=O)cc2F)cn1)N1CCOCC1` [Example 13, (5-{2-Fluoro-4-[(5R)-2-oxo-5-(1H-1,2,3-triazol-1-ylmethyl)-1,3-oxazolidin-3-yl]phenyl}pyridin-2-yl)methyl morpholine-4-carboxylate] showed a melting point of 131 to 133 °C.
The same measure, in the same setting: the value for `O=C1O[C@@H](Cn2ccnn2)CN1c1ccc(-c2ccc(CN3CCOCC3)nc2)c(F)c1` [Example 9, (5R)-3-{3-Fluoro-4-[6-(morpholin-4-ylmethyl)pyridin-3-yl]phenyl}-5-(1H-1,2,3-triazol-1-ylmethyl)-1,3-oxazolidin-2-one] was 175 °C.
`Cc1cn(C[C@H]2CN(c3ccc(-c4ccc(C#N)nc4)c(F)c3)C(=O)O2)nn1` [Ref Example 7, 5-(2Fluoro-4-{(5R)-5-[(4-methyl-1H-1,2,3-triazol-1-yl)methyl]-2-oxo-1,3-oxazolidin-3-yl}phenyl)pyridine-2-carbonitrile] displayed a melting point of 210 to 212 °C. The Ki at MAO-A was 3.65 µM.
In turn, `O=C1O[C@@H](Cn2ccnn2)CN1c1ccc(-c2ccc(C(O)C3CC3)nc2)c(F)c1` (stereo partly drawn) [Example 16, (5R)-3-(4-{6-[Cyclopropyl(hydroxy)methyl]pyridin-3-yl}-3-fluorophenyl)-5-(1H-1,2,3-triazol-1-ylmethyl)-1,3-oxazolidin-2-one] came in with a melting point of 160 to 163 °C.
Regarding `O=C1O[C@@H](Cn2ccnn2)CN1c1ccc(-c2ccc(C(O)CN3CCOCC3)nc2)c(F)c1` (stereo partly drawn) [Example 1, (5R)-3-{3-Fluoro-4-[6-(1-hydroxy-2-morpholin-4-ylethyl)pyridin-3-yl]phenyl}-5-(1H-1,2,3-triazol-1-ylmethyl)-1,3-oxazolidin-2-one], the MIC in data set [2] came out at 2 µg/mL (≈ 4.27 µM); in data set [3], 1 µg/mL (≈ 2.13 µM); in data set [4] it was 1 µg/mL (≈ 2.13 µM); in the data set on Haemophilus influenzae, 4 µg/mL (≈ 8.54 µM); against Streptococcus pneumoniae it was 0.25 µg/mL (≈ 0.534 µM). In addition, the affinity on MAO-A corresponds to a Ki of 94 µM.
Take `Cc1cnc(C)n1CC(O)c1ccc(-c2ccc(N3C[C@H](Cn4ccnn4)OC3=O)cc2F)cn1` (stereo partly drawn) [Example 20, (5R)-3-(4-{6-[2-(2,5-Dimethyl-1H-imidazol-1-yl)-1-hydroxyethyl]pyridin-3-yl}-3-fluorophenyl)-5-(1H-1,2,3-triazol-1-ylmethyl)-1,3-oxazolidin-2-one]: the melting point lay in the range of 195 to 200 °C.
Still for that read-out and setting: the figure for `CC(=O)CC(O)c1ccc(-c2ccc(N3C[C@H](Cn4ccnn4)OC3=O)cc2F)cn1` (stereo partly drawn) [Example 14, (5R)-3-{3-Fluoro-4-[6(1-hydroxy-3-oxobutyl)pyridin-3-yl]phenyl}-5-(1H-1,2,3-triazol-1-ylmethyl)-1,3-oxazolidin-2-one] is 130 to 135 °C.
On the same count and under the same terms, the value for `C[C@H](O)c1ccc(-c2ccc(N3C[C@H](Cn4ccnn4)OC3=O)cc2F)cn1` [Example 11, (5R)-3-(3-Fluoro-4-{6-[(1S)-1-hydroxyethyl]pyridin-3-yl}phenyl)-5-(1H-1,2,3-triazol-1-ylmethyl)-1,3-oxazolidin-2-one] was 183 °C.
In the case of `O=C1O[C@@H](Cn2ccnn2)CN1c1ccc(-c2ccc(C(O)CN3CCOCC3)nc2)c(F)c1` (stereo partly drawn) (as salt: hydrochloride) [Example 1, (5R)-3-{3-Fluoro-4-[6-(1-hydroxy-2-morpholin-4-ylethyl)pyridin-3-yl]phenyl}-5-(1H-1,2,3-triazol-1-ylmethyl)-1,3-oxazolidin-2-one], the melting point was > 194 °C (dec.).
Same read-out and setting: the figure for `CC(C)(O)c1ccc(-c2ccc(N3C[C@H](Cn4ccnn4)OC3=O)cc2F)cn1` [Example 5, (5R)-3-{3-Fluoro-4-[6-(1-hydroxy-1-methylethyl)pyridin-3-yl]phenyl}-5-(1-1,2,3-triazol-1-ylmethyl)-1,3-oxazolidin-2-one] is 180 °C.
